Consider 25 molecules from patent publication US10183950B2, “Thienopyrimidine inhibitors of atypical protein kinase C” (Cancer Research Technology Limited, priority 2011, dated 2019).

In this assay the target is T1, full-length human PKCι (Homo sapiens, UniProt P41743).
T1 construct: Recombinant, full-length human PKCι expressed in Sf21 insect cells is also commercially available; purchased; host or cells: Sf21 insect cells
T1 sequence (P41743 1-596): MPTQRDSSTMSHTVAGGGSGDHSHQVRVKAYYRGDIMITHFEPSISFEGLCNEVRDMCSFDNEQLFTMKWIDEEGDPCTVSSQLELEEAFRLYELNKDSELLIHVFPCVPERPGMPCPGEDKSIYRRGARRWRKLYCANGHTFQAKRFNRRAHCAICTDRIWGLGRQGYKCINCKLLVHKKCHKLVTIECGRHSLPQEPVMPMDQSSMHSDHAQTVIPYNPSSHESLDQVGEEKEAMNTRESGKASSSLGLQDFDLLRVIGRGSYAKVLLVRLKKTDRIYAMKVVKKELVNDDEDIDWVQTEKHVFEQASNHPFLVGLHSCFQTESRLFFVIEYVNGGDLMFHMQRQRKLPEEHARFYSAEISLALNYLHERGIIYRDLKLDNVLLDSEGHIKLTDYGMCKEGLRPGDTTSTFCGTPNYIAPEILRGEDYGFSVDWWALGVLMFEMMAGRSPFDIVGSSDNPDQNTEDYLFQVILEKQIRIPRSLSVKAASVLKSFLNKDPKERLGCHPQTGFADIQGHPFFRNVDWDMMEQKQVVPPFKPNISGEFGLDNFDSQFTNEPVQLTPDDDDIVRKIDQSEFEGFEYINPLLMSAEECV
Put plainly: PKCι IC50 IMAP fluorescence polarisation assay, full-length enzyme. Conditions: full length PKCi at 15 μM ATP; read-out: IC50 in IMAP assay against full length PKCi (Activity). Format: biochemical. How it is done:
Assays are based on the ability of PKCι to phosphorylate a commercially available peptide substrate in vitro. […] Recombinant, full-length human PKCι expressed in Sf21 insect cells is also commercially available. Recombinant, kinase-domain human PKCι is expressed and purified in-house.
The procedure below explains how dose response curves for inhibitors of PKCι are obtained.
Compounds to be tested are dissolved in 100% DMSO. […] 1 μl is plated into 384 well black low-binding flat bottomed assay plates which are used immediately. Dilutions and additions of compound to assay plates are carried out using Matrix WellMate® and Matrix PlateMate® Plus liquid handling systems.
The final concentration of peptide substrate in the assay is 100 nM. […] Relevant controls are included, namely no compound and no enzyme. […] The reaction is allowed to incubate for 60 minutes at room temperature, before the reaction is stopped and developed by the addition of 20 μl IMAP™ development reagent (Molecular Devices). IMAP development reagent consists of 0.25% (v/v) IMAP progressive binding reagent, 17% (v/v) IMAP progressive binding buffer A and 3% (v/v) IMAP progressive binding buffer B. The plates are then incubated for 2 hours at room temperature before being read using an appropriate plate reader, for example a Molecular Devices HT Analyst or a BMG Pherastar.
(In general: In fluorescence polarisation assays a small probe gives low polarisation when free and higher when bound to something large.)

What is called IC50 is the concentration needed to halve the response being measured.

Turning to `N[C@H](CNc1nc(-c2ccncc2)nc2sc3c(c12)CCCC3)Cc1ccccc1F` [compound 51, (S)-3-(2-Fluoro-phenyl)-N*1*-(2-pyridin-4-yl-5,6,7,8-tetrahydro-benzo[4,5]thieno[2,3-d]pyrimidin-4-yl)-propane-1,2-diamine], the concentration for half-maximal inhibition (IC50) lay in the range of 0.1 to 1 µM.
For `N[C@@H](CNc1nc(-c2ccncc2)nc2sc3c(c12)CCCC3)Cc1cccc2ccccc12` [compound 52, (R)-3-Naphthalen-1-yl-N*1*- (2-pyridin-4-yl-5,6,7,8-tetrahydro-benzo[4,5]thieno[2,3-d]pyrimidin-4-yl)-propane-1,2-diamine], the IC50 lay in the range of 1 to 10 µM.
As for `Cc1ccccc1C[C@H](N)CNc1nc(-c2ccncc2)nc2sc3c(c12)CCCC3` [compound 53, (S)-N*1*-(2-Pyridin-4-yl-5,6,7,8-tetrahydro-benzo[4,5]thieno[2,3-d]pyrimidin-4-yl)-3-o-tolyl-propane-1,2-diamine], the IC50 fell in the range of 0.1 to 1 µM.
`COc1cccc(C[C@H](N)CNc2nc(-c3ccncc3)nc3sc4c(c23)CCCC4)c1` [compound 54, (S)-3-(3-Methoxy-phenyl)-N*1*-(2-pyridin-4-yl-5,6,7,8-tetrahydro-benzo[4,5]thieno[2,3-d]pyrimidin-4-yl)-propane-1,2-diamine]: the IC50 lay within 1 to 10 µM.
Turning to `N[C@H](CNc1nc(-c2ccncc2)nc2sc3c(c12)CCCC3)Cc1ccc(O)cc1` [compound 55, 4-[(S)-2-Amino-3-(2-pyridin-4-yl-5,6,7,8-tetrahydro-benzo[4,5]thieno[2,3-d]pyrimidin-4-ylamino)-propyl]-phenol], the 50% inhibitory concentration (IC50) fell in the range of 1 to 10 µM.
For `N[C@H](CNc1nc(-c2ccncc2)nc2sc3c(c12)CCCC3)Cc1ccncc1` [compound 56, (S)-3-Pyridin-4-yl-N*1*-(2-pyridin-4-yl-5,6,7,8-tetrahydro-benzo[4,5]thieno[2,3-d]pyrimidin-4-yl)-propane-1,2-diamine], the 50% inhibitory concentration (IC50) was in the range of 1 to 10 µM.
In the case of `N[C@H](CNc1nc(-c2ccncc2)nc2sc3c(c12)CCCC3)Cc1cccnc1` [compound 57, (S)-3-Pyridin-3-yl-N*1*-(2-pyridin-4-yl-5,6,7,8-tetrahydro-benzo[4,5]thieno[2,3-d]pyrimidin-4-yl)-propane-1,2-diamine], the IC50 fell in the range of 0.1 to 1 µM.
As to `N[C@H](CNc1nc(-c2ccncc2)nc2sc3c(c12)CCCC3)Cc1ccccn1` [compound 58, (S)-3-Pyridin-2-yl-N*1*-(2-pyridin-4-yl-5,6,7,8-tetrahydro-benzo[4,5]thieno[2,3-d]pyrimidin-4-yl)-propane-1,2-diamine], the IC50 was in the range of 1 to 10 µM.
Turning to `N[C@H](CNc1nc(-c2ccncc2)nc2sc3c(c12)CCCC3)Cc1cscn1` [compound 59, (S)-N*1*-(2-Pyridin-4-yl-5,6,7,8-tetrahydro-benzo[4,5]thieno[2,3-d]pyrimidin-4-yl)-3-thiazol-4-yl-propane-1,2-diamine], the concentration for half-maximal inhibition (IC50) lay within 0.1 to 1 µM.
As for `CC(C)(C)C[C@H](N)CNc1nc(-c2ccncc2)nc2sc3c(c12)CCCC3` [compound 60, (S)-4,4-Dimethyl-N*1*-(2-pyridin-4-yl-5,6,7,8-tetrahydro-benzo[4,5]thieno[2,3-d]pyrimidin-4-yl)-pentane-1,2-diamine], the figure is 1 to 10 µM.
With `N[C@@H](CNc1nc(-c2ccncc2)nc2sc3c(c12)CCCC3)Cc1csc2ccccc12` [compound 61, (R)-3-Benzo[b]thiophen-3-yl-N*1*-(2-pyridin-4-yl-5,6,7,8-tetrahydro-benzo[4,5]thieno[2,3-d]pyrimidin-4-yl)-propane-1,2-diamine], the concentration for half-maximal inhibition (IC50) was in the range of 1 to 10 µM.
Consider `c1cc(-c2nc(NC[C@H]3CCCCN3)c3c4c(sc3n2)CCCC4)ccn1` [compound 62, (R)-1-Piperidin-2-ylmethyl-(2-pyridin-4-yl-5,6,7,8-tetrahydro-benzo[4,5]thieno[2,3-d]pyrimidin-4-yl)-amine], for which the IC50 was in the range of 1 to 10 µM.
As for `COc1ccccc1C[C@H](N)CNc1nc(-c2ccncc2)nc2sc3c(c12)CCSC3` [compound 64, (S)-3-(2-Methoxy-phenyl)-N*1*-(2-pyridin-4-yl-5,8-dihydro-6H-thio-pyrano[4′,3′:4,5]thieno[2,3-d]pyrimidin-4-yl)-propane-1,2-diamine], the figure is 10 to 40 µM.
For the molecule `N[C@H](CNc1nc(-c2ccncc2)nc2sc3c(c12)CCCC3)Cc1ccccc1O` [compound 65, 2-[(S)-2-amino-3-(2-pyridin-4-yl-5,6,7,8-tetrahydro-benzo[4,5]thieno[2,3-d]pyrimidin-4-ylamino)-propyl]-phenol], the IC50 was under 0.1 µM.
In the case of `N[C@H](CNc1nc(-c2ccncc2)nc2sc3c(c12)CCCC3)Cc1cccc(O)c1` [compound 66, 3-[(S)-2-Amino-3-(2-pyridin-4-yl-5,6,7,8-tetrahydro-benzo[4,5]thieno[2,3-d]pyrimidin-4-ylamino)-propyl]-phenol], the IC50 was in the range of 0.1 to 1 µM.
On to `N[C@@H](CNc1nc(-c2ccncc2)nc2sc3c(c12)CCCCC3)Cc1ccccc1` [compound 70, (R)-3-Phenyl-N*1*-(2-pyridin-4-yl-6,7,8,9-tetrahydro-5H-10-thia-1,3-diaza-benzo[a]azulen-4-yl)-propane-1,2-diamine], for which the IC50 was in the range of 1 to 10 µM.
Regarding `N[C@H](CNc1nc(-c2ccncc2)nc2sc3c(c12)CCN(C(=O)c1ccccc1)C3)Cc1ccccc1` [compound 72, [4-((S)-2-Amino-3-phenyl-propylamino)-2-pyridin-4-yl-5,8-dihydro-6H-pyrido[4′,3′:4,5]thieno[2,3-d]pyrimidin-7-yl]-phenyl-methanone], the half-inhibitory concentration (IC50) lay in the range of 1 to 10 µM.
With `N[C@@H](CNc1nc(-c2ccncc2)nc2sc3c(c12)CCN(C(=O)c1ccccc1)C3)Cc1ccccc1` [compound 73, [4-((R)-2-Amino-3-phenyl-propylamino)-2-pyridin-4-yl-5,8-dihydro-6H-pyrido[4′,3′:4,5]thieno[2,3-d]pyrimidin-7-yl]-phenyl-methanone] the figure was 1 to 10 µM; with `CC1(C)CCc2c(sc3nc(-c4ccncc4)nc(NC[C@@H](N)Cc4ccccc4)c23)C1` [compound 77, (S)-N*1*-(7,7-Dimethyl-2-pyridin-4-yl-5,6,7,8-tetrahydro-benzo[4,5]thieno[2,3-d]pyrimidin-4-yl)-3-phenyl-propane-1,2-diamine], 10 to 40 µM.
In the case of `N[C@H](CNc1nc(-c2ccncc2)nc2sc3c(c12)CCC1(C3)OCCO1)Cc1ccccc1` [compound 78, (S)-3-Phenyl-N*1*-*-1,4-Dioxa-spiro[7.7]-(2-pyridin-4-yl-5,6,7,8-tetrahydro-benzo[4,5]thieno[2,3-d]pyrimidin-4-yl)-propane-1,2-diamine], the IC50 lay in the range of 1 to 10 µM.
With `N[C@@H](CNc1nc(-c2ccncc2)nc2sc3c(c12)CCC1(C3)OCCO1)Cc1ccccc1` [compound 79, (R)-3-Phenyl-N*1*-*-1,4-Dioxa-spiro[7.7]-(2-pyridin-4-yl-5,6,7,8-tetrahydro-benzo[4,5]thieno[2,3-d]pyrimidin-4-yl)-propane-1,2-diamine] the figure was 0.1 to 1 µM; with `N[C@H](CNc1nc(-c2ccncc2)nc2sc3c(c12)CCSC3)Cc1ccccc1` [compound 80, (S)-3-Phenyl-N*1*-(2-pyridin-4-yl-5,8-dihydro-6H-thiopyrano[4′,3′:4,5]thieno[2,3-d]pyrimidin-4-yl)-propane-1,2-diamine], 0.1 to 1 µM; with `N[C@@H](CNc1nc(-c2ccncc2)nc2sc3c(c12)CCSC3)Cc1ccccc1` [compound 81, (R)-3-Phenyl-N*1*-(2-pyridin-4-yl-5,8-dihydro-6H-thiopyrano[4′,3′:4,5]thieno[2,3-d]pyrimidin-4-yl)-propane-1,2-diamine], 1 to 10 µM.
On to `N[C@H](CNc1nc(-c2ccncc2)nc2sc3c(c12)CCOC3)Cc1ccccc1` [compound 82, (S)-3-Phenyl-N*1*-(2-pyridin-4-yl-5,8-dihydro-6H-pyrano[4′,3′:4,5]thieno[2,3-d]pyrimidin-4-yl)-propane-1,2-diamine], for which the IC50 is 1 to 10 µM.
As for `N[C@@H](CNc1nc(-c2ccncc2)nc2sc3c(c12)CCOC3)Cc1ccccc1` [compound 83, (R)-3-Phenyl-N*1*-(2-pyridin-4-yl-5,8-dihydro-6H-pyrano[4′,3′:4,5]thieno[2,3-d]pyrimidin-4-yl)-propane-1,2-diamine], the 50% inhibitory concentration (IC50) was 10 to 40 µM.
